Experimental data from patent US20240376076A1, “INHIBITORS TARGETING UBIQUITIN SPECIFIC PROTEASE 7 (USP7)” (Dana-Farber Cancer Institute, Inc., priority 2021, published 2024).

Key:
[1] = target: T1, USP7, Active human recombinant protein (Homo sapiens, UniProt Q93009); experiment: USP7 assay (Ubiquitin-Rhodamine 110 enzymatic assay); assay type: biochemical; settings: read-out: IC50
T1 construct: purchased CP Lot; 20200225001
Summary of the method: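 Human recombinant USP7 (0.05 nM final) preincubated with compound, 10-point 3-fold series, 15 min at RT. Reaction started with 190 nM ubiquitin-rhodamine 110. Fluorescence (ex 485/em 535 nm) read kinetically 20 min. Slopes normalized to enzyme+substrate and substrate-only controls; IC50 from curve fit.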

[2] = mouse liver microsomal stability (Microsome Assay Protocol); assay type: in vitro ADME; settings: pH 7.4; mouse liver microsomes, NADPH, 37° C.; read-out: MLM t1/2, min
Summary of the method: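 Compound at 1.5 μM was mixed with 0.75 mg/mL mouse liver microsomes in 0.1 M potassium phosphate, 1.0 mM EDTA, pH 7.4, then started with NADPH from a 6 mM stock after 5 min preincubation at 37 °C. Samples taken at 0, 5, 15, 30 and 45 min were quenched with acetonitrile containing internal standard and analysed by LC/MS.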

[3] = plasma stability (Plasma Assay Protocol); assay type: in vitro ADME; settings: 37° C., t1/2 extrapolated if >50% remaining at 60 min, ∞ if near 100% remaining
Description: ND refers to not disclosed.
• 1. Preheated 0.05 M sodium phosphate and 0.07 M NaCl buffer, pH 7.4. Dissolved 14.505 g/L Na2HPO4·12H2O, 1.483 g/L NaH2PO4·2H2O and 4.095 g/L NaCl in deionized water. The basic solution was then titrated with the phosphoric acid to pH 7.40. Stored in fridge up to 7 days. Checked pH on the day of experiment and adjust if outside specification of 7.4+/−0.1. • 2. Plasma preparation: • Thawed frozen plasma by placing at 37° C. quickly. Centrifuged plasma at 3,000 rpm for 8 minutes to remove clots, pipetted and pooled the supernatant as the plasma to be used in the experiment. Checked and recorded the pH of the plasma. Only used plasma within the range of pH 7.4 to pH 8. If higher than pH 8, discarded the plasma. By using a 5% CO2 incubator and PBS buffer, a pH of 7.4 was reached after the 4 hour equilibrium dialysis time. Put the plasma on ice until used. • 3. Tested compounds and reference compounds spiking solution: • 0.5 mM test compounds spiking solution A: Added 10 μL of 10 mM test compounds stock solution to 190 μL DMSO. • 0.02 mM spiking solution B: Added 40 μL of spiking solution A to 960 μL of […] Sodium phosphate buffer with 0.5% BSA.
Pre-warmed the plasma and spiking solution B at 37° C. for 5 min. Added 10 μL of pre-warmed spiking solution B into the wells designated for all the time points (5, 15, 30, 45, 60 min).
For 0-min, added 400 μL of acetonitrile (ACN) containing the internal standard (IS) to the wells of 0-min plate and then added 90 μL of plasma. Added 90 μL of pre-warmed plasma into the wells designated for the time points (0, 5, 15, 30, 45, 60 min), and started timing. At 5, 15, 30, 45, 60 min, added 400 μL of ACN containing IS to the wells of corresponding plates, respectively, to stop the reaction. After quenching, shook the plates at the vibrator (IKA, MTS 2/4) for 10 min (600 rpm/min) and then centrifuged at 5594 g for 15 min (Thermo Multifuge×3R). Transferred 50 μL of the supernatant from each well into a 96-well sample plate containing 50 μL of ultra pure water (Millipore ZMQS50F01) for LC/MS analysis.

T1 sequence (Q93009 whole entry): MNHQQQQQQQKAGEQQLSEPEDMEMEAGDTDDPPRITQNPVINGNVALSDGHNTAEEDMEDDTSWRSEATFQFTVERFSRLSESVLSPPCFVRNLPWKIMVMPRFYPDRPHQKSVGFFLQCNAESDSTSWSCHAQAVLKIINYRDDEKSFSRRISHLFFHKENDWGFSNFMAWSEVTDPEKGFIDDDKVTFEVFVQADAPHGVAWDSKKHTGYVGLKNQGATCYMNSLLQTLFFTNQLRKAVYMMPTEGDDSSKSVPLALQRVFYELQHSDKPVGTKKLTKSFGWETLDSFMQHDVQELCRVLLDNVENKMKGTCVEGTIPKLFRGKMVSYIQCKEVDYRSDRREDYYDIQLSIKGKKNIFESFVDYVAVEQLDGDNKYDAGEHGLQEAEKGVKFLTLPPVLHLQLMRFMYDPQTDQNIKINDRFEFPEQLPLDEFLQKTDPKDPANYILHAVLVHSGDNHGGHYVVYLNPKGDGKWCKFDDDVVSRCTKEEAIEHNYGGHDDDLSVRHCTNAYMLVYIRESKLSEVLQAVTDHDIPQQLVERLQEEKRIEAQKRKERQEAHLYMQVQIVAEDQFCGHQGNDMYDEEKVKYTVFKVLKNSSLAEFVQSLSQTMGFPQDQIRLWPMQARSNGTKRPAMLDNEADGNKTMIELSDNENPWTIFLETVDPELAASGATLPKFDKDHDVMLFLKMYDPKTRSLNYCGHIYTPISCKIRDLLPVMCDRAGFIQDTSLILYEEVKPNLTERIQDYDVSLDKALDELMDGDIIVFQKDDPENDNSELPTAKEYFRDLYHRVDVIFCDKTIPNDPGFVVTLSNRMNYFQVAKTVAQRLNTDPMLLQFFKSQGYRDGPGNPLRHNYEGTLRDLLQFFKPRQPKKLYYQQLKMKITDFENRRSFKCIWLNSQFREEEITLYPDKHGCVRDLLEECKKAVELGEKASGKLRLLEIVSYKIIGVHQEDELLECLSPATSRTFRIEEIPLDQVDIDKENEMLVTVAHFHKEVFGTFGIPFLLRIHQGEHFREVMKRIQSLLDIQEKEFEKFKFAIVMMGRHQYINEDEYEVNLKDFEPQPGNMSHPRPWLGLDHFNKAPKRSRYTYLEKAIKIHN

| Compound | IC50 [1] | half-life at 1 µM [2] | Plasma t1/2, min [3] | half-life at 2 µM [3] |
| --- | --- | --- | --- | --- |
| CC(C)c1cnc2cc(C(=O)NCCN3CCC(C(=O)N4CCC(O)(Cn5cnc6cc(OCCN7CCNCC7)ccc6c5=O)CC4)C(c4ccccc4)C3)ccc2c1Cl (stereo not drawn) [Compound 108] | < 20 nM | 14 min | ∞* | – |
| O=C(NCCN1CCC(C(=O)N2CCC(O)(Cn3cnc4cc(OCCN5CCNCC5)ccc4c3=O)CC2)C(c2ccccc2)C1)c1ccc2c(F)ccnc2c1 (stereo not drawn) [Compound 109] | < 20 nM | 22.4 min | – | 102 min |
| CN(C)CCOc1cc(F)c2c(=O)n(CC3(O)CCN(C(=O)C4CCN(CCNC(=O)c5ccc6c(Cl)ccnc6c5)CC4c4ccccc4)CC3)cnc2c1 (stereo not drawn) [Compound 112] | 100 to 1000 nM | 45.3 min | – | 305 min |
| CN(C)CCC(=O)Nc1ccc2c(=O)n(CC3(O)CCN(C(=O)[C@H](CCCNC(=O)c4ccc5c(Cl)c6c(nc5c4)CCC6)Cc4ccccc4)CC3)cnc2c1 [Compound 114] | < 20 nM | 4.13 min | – | 702 min |
| CN(C)CCCOc1ccc2c(=O)n(CC3(O)CCN(C(=O)C(CCCNC(=O)c4ccc5c(Cl)cc(C6CC6)nc5c4)Cc4ccccc4)CC3)cnc2c1 (stereo not drawn) [Compound 116] | < 20 nM | 27.1 min | ∞* | – |

Next, values leading:

| IC50 [1] | half-life at 1 µM [2] | Plasma t1/2, min [3] | half-life at 2 µM [3] | Compound |
| --- | --- | --- | --- | --- |
| 20 to 100 nM | 20.3 min | ∞* | – | CN(C)CCOc1ccc2c(=O)n(CC3(O)CCN(C(=O)[C@H](CCCNC(=O)c4ccc5c(Cl)cc(C6CC6)nc5c4)Cc4ccccc4)CC3)cnc2c1 [Compound 117] |
| 20 to 100 nM | 3090 min | – | 226 min | CN1CCN(c2ccc3c(=O)n(CC4(O)CCN(C(=O)[C@H](CCCNC(=O)c5ccc6c(Cl)cc(C7CC7)nc6c5)Cc5ccccc5)CC4)cnc3c2)CC1 [Compound 122] |
| < 20 nM | 24.3 min | – | 178 min | CN(C)C1CCN(c2ccc3c(=O)n(CC4(O)CCN(C(=O)[C@H](CCCNC(=O)c5ccc6c(Cl)cc(C7CC7)nc6c5)Cc5ccccc5)CC4)cnc3c2)CC1 [Compound 123] |
| 20 to 100 nM | 6.96 min | ∞* | – | CN1CCC(OCCOc2ccc3c(=O)n(CC4(O)CCN(C(=O)[C@H](CCCNC(=O)c5ccc6c(Cl)cc(C7CC7)nc6c5)Cc5ccccc5)CC4)cnc3c2)CC1 [Compound 132] |
